Source: patent publication US9364467B2 (Salix Pharmaceuticals, Ltd, priority 2012, dated 2016)
Converted amounts (≈) assume the structure as drawn.

Test system: Enterobacteriaceae spp. strains
Assay: In vitro activity (MIC) against Enterobacteriaceae spp. strains

CO[C@H]1/C=C/O[C@@]2(C)Oc3c(C)c(O)c4c(O)c(c5c(nc6cc(C)ccn65)c4c3C2=O)NC(=O)/C(C)=C\C=C\[C@H](C)[C@H](O)[C@@H](C)[C@@H](O)[C@@H](C)[C@H](OC(C)=O)[C@@H]1C [Rifaximin, reference compound]
MIC (Escherichia coli, E. coli 171): 32 µg/mL (≈ 40.7 µM) | MIC (Escherichia coli, E. coli 342): 32 µg/mL (≈ 40.7 µM) | MIC (Escherichia coli, E. coli 343): 32 µg/mL (≈ 40.7 µM) | MIC (Escherichia coli, E. coli 345): 32 µg/mL (≈ 40.7 µM) | MIC (Escherichia coli, E. coli 349): 32 µg/mL (≈ 40.7 µM) | MIC (Escherichia coli, E. coli 351): 32 µg/mL (≈ 40.7 µM) | MIC (Klebsiella aerogenes, E. aerogenes 235): 32 µg/mL (≈ 40.7 µM) | MIC (Klebsiella aerogenes, E. aerogenes 281): 32 µg/mL (≈ 40.7 µM) | MIC (Klebsiella aerogenes, E. aerogenes 290): 32 µg/mL (≈ 40.7 µM) | MIC (Klebsiella aerogenes, E. aerogenes 1023): 32 µg/mL (≈ 40.7 µM) | MIC (Klebsiella aerogenes, E. aerogenes 1030): 32 µg/mL (≈ 40.7 µM) | MIC (Klebsiella aerogenes, E. aerogenes 1031): 32 µg/mL (≈ 40.7 µM) | MIC (Klebsiella oxytoca, K. oxytoca 4): 32 µg/mL (≈ 40.7 µM) | MIC (Klebsiella oxytoca, K. oxytoca 18): 32 µg/mL (≈ 40.7 µM) | MIC (Klebsiella oxytoca, K. oxytoca 479): 32 µg/mL (≈ 40.7 µM) | MIC (Klebsiella oxytoca, K. oxytoca 499): 32 µg/mL (≈ 40.7 µM) | MIC (Klebsiella pneumoniae, K. pneumoniae 17): 32 µg/mL (≈ 40.7 µM) | MIC (Klebsiella pneumoniae, K. pneumoniae 19): 32 µg/mL (≈ 40.7 µM) | MIC (Klebsiella pneumoniae, K. pneumoniae 76): 32 µg/mL (≈ 40.7 µM) | MIC (Klebsiella pneumoniae, K. pneumoniae 80): 32 µg/mL (≈ 40.7 µM) | MIC (Klebsiella pneumoniae, K. pneumoniae 91): 32 µg/mL (≈ 40.7 µM) | MIC (Klebsiella pneumoniae, K. pneumoniae 1064): 32 µg/mL (≈ 40.7 µM) | MIC (Morganella morganii, M. morganii 42): 16 µg/mL (≈ 20.4 µM) | MIC (Morganella morganii, M. morganii 48): 32 µg/mL (≈ 40.7 µM) | MIC (Morganella morganii, M. morganii 50): 32 µg/mL (≈ 40.7 µM) | MIC (Morganella morganii, M. morganii 57): 32 µg/mL (≈ 40.7 µM) | MIC (Morganella morganii, M. morganii 67): 32 µg/mL (≈ 40.7 µM) | MIC (Morganella morganii, M. morganii 101): 32 µg/mL (≈ 40.7 µM) | MIC (Morganella morganii, M. morganii 105): 32 µg/mL (≈ 40.7 µM) | MIC (Morganella morganii, M. morganii 108): 32 µg/mL (≈ 40.7 µM) | MIC (Morganella morganii, M. morganii 453): 8 µg/mL (≈ 10.2 µM) | MIC (Morganella morganii, M. morganii 458): 32 µg/mL (≈ 40.7 µM) | MIC (Morganella morganii, M. morganii 461): 32 µg/mL (≈ 40.7 µM) | MIC (Morganella morganii, M. morganii 462): 32 µg/mL (≈ 40.7 µM) | MIC (Morganella morganii, M. morganii 923): 16 µg/mL (≈ 20.4 µM) | MIC (Morganella morganii, M. morganii 932): 32 µg/mL (≈ 40.7 µM) | MIC (Morganella morganii, M. morganii 935): 32 µg/mL (≈ 40.7 µM) | MIC (Morganella morganii, M. morganii 1006): 8 µg/mL (≈ 10.2 µM) | MIC (Proteus mirabilis, P. mirabilis 465): 32 µg/mL (≈ 40.7 µM) | MIC (Proteus mirabilis, P. mirabilis 466): 32 µg/mL (≈ 40.7 µM) | MIC (Proteus mirabilis, P. mirabilis 469): 32 µg/mL (≈ 40.7 µM) | MIC (Proteus mirabilis, P. mirabilis 470): 16 µg/mL (≈ 20.4 µM) | MIC (Proteus mirabilis, P. mirabilis 471): 8 µg/mL (≈ 10.2 µM) | MIC (Proteus mirabilis, P. mirabilis 472): 8 µg/mL (≈ 10.2 µM) | MIC (Proteus mirabilis, P. mirabilis 473): 16 µg/mL (≈ 20.4 µM) | MIC (Proteus mirabilis, P. mirabilis 477): 32 µg/mL (≈ 40.7 µM) | MIC (Proteus mirabilis, P. mirabilis 479): 32 µg/mL (≈ 40.7 µM) | MIC (Proteus mirabilis, P. mirabilis 480): 32 µg/mL (≈ 40.7 µM) | MIC (Proteus mirabilis, P. mirabilis 489): 32 µg/mL (≈ 40.7 µM) | MIC (Proteus mirabilis, P. mirabilis 928): 32 µg/mL (≈ 40.7 µM) | MIC (Proteus mirabilis, P. mirabilis 972): 32 µg/mL (≈ 40.7 µM) | MIC (Proteus mirabilis, P. mirabilis 983): 16 µg/mL (≈ 20.4 µM) | MIC (Proteus mirabilis, P. mirabilis 985): 32 µg/mL (≈ 40.7 µM) | MIC (Proteus mirabilis, P. mirabilis 987): 32 µg/mL (≈ 40.7 µM) | MIC (Proteus mirabilis, P. mirabilis 988): 8 µg/mL (≈ 10.2 µM) | MIC (Proteus mirabilis, P. mirabilis 990): 32 µg/mL (≈ 40.7 µM) | MIC (Proteus mirabilis, P. mirabilis 991): 32 µg/mL (≈ 40.7 µM) | MIC (Proteus mirabilis, P. mirabilis 993): 16 µg/mL (≈ 20.4 µM) | MIC (Proteus mirabilis, P. mirabilis 995): 32 µg/mL (≈ 40.7 µM) | MIC (Proteus mirabilis, P. mirabilis 996): 32 µg/mL (≈ 40.7 µM) | MIC (Proteus mirabilis, P. mirabilis 997): 32 µg/mL (≈ 40.7 µM) | MIC (Proteus mirabilis, P. mirabilis 998): 8 µg/mL (≈ 10.2 µM) | MIC (Providencia stuartii, P. stuartii 94): 32 µg/mL (≈ 40.7 µM) | MIC (Providencia stuartii, P. stuartii 299): 16 µg/mL (≈ 20.4 µM) | MIC (Providencia stuartii, P. stuartii 301): 32 µg/mL (≈ 40.7 µM) | MIC (Providencia stuartii, P. stuartii 306): 16 µg/mL (≈ 20.4 µM) | MIC (Providencia stuartii, P. stuartii 312): 32 µg/mL (≈ 40.7 µM) | MIC (Providencia stuartii, P. stuartii 459): 32 µg/mL (≈ 40.7 µM) | MIC (S. odorifera 59): 32 µg/mL (≈ 40.7 µM) | MIC (Serratia marcescens, S. marcescens 38): 32 µg/mL (≈ 40.7 µM) | MIC (Serratia marcescens, S. marcescens 45): 32 µg/mL (≈ 40.7 µM) | MIC (Serratia marcescens, S. marcescens 59): 32 µg/mL (≈ 40.7 µM) | MIC (Serratia marcescens, S. marcescens 63): 32 µg/mL (≈ 40.7 µM) | MIC (Stenotrophomonas maltophilia, S. maltophilia 1203): 32 µg/mL (≈ 40.7 µM) | MIC (Stenotrophomonas maltophilia, S. maltophilia 1208): 32 µg/mL (≈ 40.7 µM)
